Assay results as given in US20250064846A1, “TREATMENT AND PREVENTION OF TRIGEMINAL NEURALGIA” (THE JOHNS HOPKINS UNIVERSITY, priority 2022, published 2025).

Experiments:
[1] = target: T1, TRPA1 (Homo sapiens, UniProt O75762); test: Calcium imaging of HEK293 cells transiently expressing WT TRPA1; type: cell-based; conditions: for inhibition of TRPA1 channel activity: applied after 4-HNE, 1 μM exemestane, 100 μM JQ-1, 10 μM sulforaphane; for activation of TRPA1: exemestane 1-100 μm, JQ-1 as high as 100 μM, 10 μM sulforaphane
T1 construct: expressed in transfected cells; host or cells: HEK293
Description: Calcium Imaging and Analysis Calcium imaging and analysis was performed as previously described (See Meixiong, J. et al. Elife 8, (2019)). Briefly, cells were imaged in calcium imaging buffer (CIB; 10 mM HEPES, 1.2 mM NaHCO3, 130 mM NaCl, 3 mM KCl, 2.5 mM CaCl2, 0.6 mM MgCl2, 20 mM glucose, and 20 mM sucrose at pH 7.4 and 290-300 mOsm). To monitor changes in intracellular [Ca^2+]([Ca^2+]i), cells were loaded with either 1 μM Fura 2-AM (HEK293 cells) or 1 μM Fluo 4-AM (trigeminal neurons) for 30 min in the dark at 37° C. in CIB just prior to imaging. With Fura 2-AM, emission at 510 nm was monitored following excitation at both 340 nm and 380 nm. With Fluo 4-AM, emission at 520 nm was monitored following excitation at 488 nm. Cells were identified as positively responding if [Ca^2+]i rose by 15% compared to baseline. Damaged, detached, high-baseline, and motion-activated cells were excluded from analysis.
HEK293 cells were plated on poly-D-lysine-coated coverslips and transiently transfected with the vector backbone or constructs encoding WT or mutant TRPA1. Unless otherwise noted, cells were imaged for 30 s to establish a baseline before compounds were added. Vehicle was first applied for 30 s, after which 100 μM iodoacetamide, 1 mM H2O2, or 100 μM 4-HNE was applied. CSF from cases and controls was diluted into calcium imaging buffer 1:50 prior to each trial. 50 μM of the non-selective TRP channel inhibitor ruthenium red was applied at the end of every imaging trial.

[2] = test system: maxillary nerves of mice after nerve ligation; test: Oxidative stress assay in maxillary nerves (4-HNE, protein carbonylation, MDA); type: in vivo, mouse; conditions: for levels of 4-HNE in maxillary nerves after nerve ligation / protein carbonylation in maxillary nerves after nerve ligation: western blot normalized to β-actin, daily i.p. pre-treatment, vs vehicle
Description: (§1) Western Blotting Western blotting was performed as previously described (See Vasavda, C. et al. Cell Chem Biol 26, 1450-1460.e7 (2019)). Briefly, tissues were homogenized at 4° C. in lysis buffer (pH 7.4 solution of 50 mM Tris-HCl, 150 mM NaCl, 0.1% SDS, 0.5% sodium deoxycholate, and 1% Triton X-100) supplemented with protease inhibitors (Sigma). When dissecting maxillary nerves for immunoblot analysis, nerves were as dissected both as proximally towards the semilunar ganglion and as distal to the skin as possible. Nerves were harvested 11 days after surgery, immediately after the final behavioral test. Lysates were then pulse sonicated and centrifuged at 16,000 g for 10 min at 4° C. Fifteen micrograms of cleared lysate were run on a 4-12% polyacrylamide Bis-Tris gradient gel in running buffer (pH 7.3 solution of 50 mM MES, 50 mM Tris Base, 0.1% SDS, 1 mM EDTA) and then transferred to a PVDF membrane. Membranes were blocked with 5% milk in TBS-T (pH 7.6 solution of 16 mM Tris-HCl, 140 mM NaCl, 0.1% Tween-20) for 1 hr at 25° C. and then incubated with primary antibodies in 3% bovine serum albumin (BSA) (w/v) in TBS-T overnight at 4° C. The following day, membranes were washed with TBS-T, and then incubated with secondary antibodies in 3% BSA (w/v) in TBS-T for 1 hr at 25° C. The following primary antibodies were used: rabbit anti-4-HNE (Abeam ab46545; 1:1.000), rabbit anti-TRPA1 (Novus Biologicals NB110-40763; 1:1,000), rabbit anti-DNP (Millipore Sigma 90451; 1:150), and mouse anti-β-actin (Santa Cruz Biotech sc-47778 HRP; 1:10,000). The following secondary antibodies were used: donkey anti-rabbit IgG (GE Healthcare NA934; 1:10,000) and goat anti-rabbit (Millipore Sigma 90452; 1:300).
Oxidative Stress Assay % 4-HNE was quantified by Western blot as described above with a rabbit anti-4-HNE (Abeam ab46545; 1:1,000) primary antibody. Protein carbonylation was assessed with the OxyBlot Protein Oxidation Detection Kit as per the manufacturer's instructions. Protein carbonylation was quantified by western blot as described above with a rabbit anti-DNP (Millipore Sigma 90451; 1:150) primary antibody. MDA was quantified with the OxiSelect TBARS Assay Kit as per the manufacturer's instructions. Concentrations below the limit of detection (LOD) were censored and substituted with a constant value of the […].

[3] = test system: TRPA1; test: Western blot for TRPA1 from maxillary nerves; type: in vivo, mouse; conditions: normalized to β-actin; vs vehicle
Text: FIGS. 15A-15H are western blots for TRPA1 (FIGS. 15A, 15C, 15E, and 15G) and graphs of relative TRPA1 expression (FIGS. 15B, 15D, 15F and 15H) from maxillary nerves of mice following constriction compared to sham surgery (FIG. 15A-15B) or treatment with sulforaphane (FIG. 15C-15D), exemestane (FIG. 15E-15F), or JQ-1 (FIG. 15G-15H), normalized to β-actin. Lanes and points represent individual mice. Median and range depicted in graphs of relative TRPA1 expression. ns=P>0.05 by two-tailed unpaired Student's t-test.
as §1, with “The following secondary antibodies were used: donkey anti-rabbit IgG (GE Healthcare NA934; 1:10,000) and goat anti-rabbit (Millipore Sigma 90452; 1:300).” left out

[4] = test system: NRF2 target genes; test: Quantitative PCR of NRF2 target genes from maxillary nerves; type: in vivo, mouse; conditions: qPCR normalized to Actb, 11 days of treatment, i.p.; for Hmox1 expression in maxillary nerves / Prdx1 expression in maxillary nerves / Txnrd1 expression in maxillary nerves: exemestane 10 or JQ-1 40 mg/kg
Description: FIGS. 17A-17J show differential upregulation of NRF2 target genes after treatment with exemestane and JQ-1. Quantitative PCR analysis of Ngo1, Hmox1 Txnrd1, Prdx1, and Gclc, as indicated, normalized to Actb from maxillary nerves of mice after 11 days of treatment with either exemestane (FIGS. 17A-17E; 10 mg/kg, i.p.) or JQ-1 (FIGS. 17F-17J; 40 mg/kg, i.p.) compared to vehicle is shown. Points represent individual mice. Median and range depicted. *=P<0.05. **=P<0.01, and ns=P>0.05 by two-tailed unpaired Student's t-test.
DNA/RNA Isolation. PCR, and Quantitative-PCR (q-PCR) Total cellular or tissue DNA/RNA was extracted using the DNeasy Blood & Tissue Kit (Qiagen) for DNA or RNeasy Plus Universal Kit (Qiagen) for RNA per the manufacturer's instructions. PCR was performed with the Platinum Taq DNA Polymerase High Fidelity Kit (Invitrogen), whereas q-PCR was performed with the TaqMan RNA-to-Ct I-Step Kit (Applied Biosystems).

[5] = test system: constrictive mouse model of trigeminal neuralgia; test: Mechanical allodynia (Von Frey filament) after constriction of the maxillary nerve; type: in vivo; conditions: i.p. daily, sulforaphane 10 mg/kg; for mechanical allodynia (analgesic effect): NRF2−/− mice, exemestane 10 mg/kg, JQ-1 40 mg/kg

T1 sequence (O75762 whole entry): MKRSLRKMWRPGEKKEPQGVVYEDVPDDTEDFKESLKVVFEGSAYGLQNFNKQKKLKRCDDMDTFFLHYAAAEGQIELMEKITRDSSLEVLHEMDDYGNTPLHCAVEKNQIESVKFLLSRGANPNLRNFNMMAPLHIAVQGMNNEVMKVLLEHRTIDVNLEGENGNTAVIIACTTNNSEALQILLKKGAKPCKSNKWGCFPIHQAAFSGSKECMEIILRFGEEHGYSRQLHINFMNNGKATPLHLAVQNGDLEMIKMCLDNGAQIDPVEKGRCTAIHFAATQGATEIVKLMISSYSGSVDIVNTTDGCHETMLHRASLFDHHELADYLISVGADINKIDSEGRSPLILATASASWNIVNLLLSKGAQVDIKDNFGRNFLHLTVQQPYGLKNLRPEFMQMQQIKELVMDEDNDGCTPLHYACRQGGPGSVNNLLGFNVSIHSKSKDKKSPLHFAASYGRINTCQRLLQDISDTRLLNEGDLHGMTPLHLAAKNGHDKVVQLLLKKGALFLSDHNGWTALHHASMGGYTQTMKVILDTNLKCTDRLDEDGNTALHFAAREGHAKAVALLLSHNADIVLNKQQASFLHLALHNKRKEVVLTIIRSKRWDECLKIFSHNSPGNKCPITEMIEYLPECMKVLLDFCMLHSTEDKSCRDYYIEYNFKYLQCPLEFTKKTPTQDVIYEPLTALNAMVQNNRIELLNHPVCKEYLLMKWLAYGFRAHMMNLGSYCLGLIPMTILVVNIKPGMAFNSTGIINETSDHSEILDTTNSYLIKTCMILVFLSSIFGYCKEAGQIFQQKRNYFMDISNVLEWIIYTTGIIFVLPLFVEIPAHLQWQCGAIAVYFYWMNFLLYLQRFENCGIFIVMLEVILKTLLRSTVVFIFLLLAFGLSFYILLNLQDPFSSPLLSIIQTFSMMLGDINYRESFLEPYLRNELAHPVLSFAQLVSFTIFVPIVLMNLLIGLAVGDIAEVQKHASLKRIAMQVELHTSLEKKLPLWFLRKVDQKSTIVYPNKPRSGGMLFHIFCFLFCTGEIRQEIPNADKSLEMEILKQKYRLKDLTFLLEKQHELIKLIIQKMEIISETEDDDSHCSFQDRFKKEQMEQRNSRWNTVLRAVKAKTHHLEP

Structure (SMILES) | inhibition of TRPA1 channel activity [1] | activation of TRPA1 [1] | levels of 4-HNE in maxillary nerves after nerve ligation [2] | protein carbonylation in maxillary nerves after nerve ligation [2] | TRPA1 expression in maxillary nerves [3] | Nqo1 expression in maxillary nerves ([4]; exemestane 10 mg/kg) | Hmox1 expression in maxillary nerves [4] | Prdx1 expression in maxillary nerves [4] | Txnrd1 expression in maxillary nerves [4] | mechanical allodynia (analgesic effect) [5] | malondialdehyde in maxillary nerves after nerve ligation ([2]; sulforaphane 10 mg/kg, i.p., normalized to protein) | mechanical allodynia ([5]; TRPA1−/− mice, compared with genetic deletion of TRPA1 alone)
C=C1C[C@@H]2[C@H](CC[C@]3(C)C(=O)CC[C@@H]23)[C@@]2(C)C=CC(=O)C=C12 [exemestane, 6-methylenandrosta-1,4-diene-3,17-dione] | Neither sulforaphane, exemestane, nor JQ-1 inhibited TRPA1 channel activity | did not activate TRPA1 | reduced | reduced | did not affect TRPA1 expression | upregulated | upregulated | upregulated | upregulated | lose their analgesic effects | – | –
Cc1sc2c(c1C)C(c1ccc(Cl)cc1)=N[C@@H](CC(=O)OC(C)(C)C)c1nnc(C)n1-2 [JQ-1, (S)-tert-butyl 2-(4-(4-chlorophenyl)-2,3,9-trimethyl-6H-thieno[3,2-f][1,2,4]triazolo[4,3-a][1,4]diazepin-6-yl)acetate] | Neither sulforaphane, exemestane, nor JQ-1 inhibited TRPA1 channel activity | do not activate TRPA1 | reduced | reduced | did not affect TRPA1 expression | – | most potently upregulated | upregulated | did not increase | lowers | – | –
C[S+]([O-])CCCCN=C=S (stereo not drawn) [sulforaphane, 1-isothiocyanato-4-(methanesulfinyl)butane] | Neither sulforaphane, exemestane, nor JQ-1 inhibited TRPA1 channel activity | Neither sulforaphane nor JQ-1 activate TRPA1 | reduced | reduced | did not affect TRPA1 expression | – | – | – | – | lose their analgesic effects | reduced | did not lower
